Common to all, as to assay: NCI tumour cell line growth inhibition, 48 h
For assay [1], the system named is A498 renal.
Assay [2] concerns KM12 colon.
In assay [3] the test system is LOX IMVI melanoma.
The test system of assay [4] is NCI-H226 lung.
Assay [5] deals with NCI-H23 lung.
Assay [6] has as its system NCI-H522 lung.
Assay [7] deals with OVCAR-4 ovarian.
In assay [8] the test system is SF-268 CNS.
The subject of assay [9] is SK-MEL-5 melanoma.
The test system of assay [10] is SN12C renal.
The test system of assay [11] is MDA-MB-435.
Assay [12] has as its system NCI/ADR-RES ovarian.
Assay [13] relates to PC-3 prostate.
Assay [14] relates to T-47D breast.
The test system of assay [15] is BT-549 breast.

Each structure is given as a SMILES string. Values joined by “and” are separate entries in the source; they are usually repeats but may differ in a detail not shown here. Identical values can stand only once.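 In this assay, cells in 96-well plates receive the compound at five concentrations for 48 hours. Endpoints are linearly interpolated between the surrounding concentrations. At the GI50, growth is halved. The concentration for full growth arrest is given as TGI.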

Take `CN1CCOC(c2ccccc2)O1` (stereo unspecified): the TGI in assay [1], in assay [2], in assay [3], in [4], in assay [5] and in assay [6] was > 100 µM throughout. In addition, the TGI in assay [7], in assay [8], in [9] and in assay [10] was > 100 µM each time.
With `O=Cc1[nH]c(=O)[nH]c(=O)c1C(=O)O`, the TGI in [2], in assay [3], in [11], in assay [4], in assay [5] and in assay [6] was > 100 µM in each case. In addition, the TGI in [12], in [7], in [13], in [8], in assay [9] and in assay [10] was > 100 µM throughout. Moreover, the TGI in [14] was > 100 µM.
Turning to `Oc1[nH]c2ccccc2c1N=NC(=S)Nc1cccc(Cl)c1`, the TGI in assay [1] was found to be 24.7 µM; in [2] it was 58.8 µM; in [3] it was 33.4 µM; in [11], 99.4 µM; in assay [4] it was 55.2 µM; in assay [5], 52.3 µM. The TGI in assay [6] is 77.6 µM; in assay [12], 8 µM; in assay [7], 59.4 µM; in assay [13], > 100 µM; in assay [8] it was > 100 µM; in assay [9], 18.8 µM. Besides, the TGI in assay [10] and in assay [14] was > 100 µM each time.
Consider `CN(C)CCC(=O)c1ccccc1`, for which the TGI in assay [1] is > 95.5 µM; in [2], > 61.4 µM; in [3] it was 57.8 µM; in assay [4], 98.4 µM; in assay [5], > 74 µM; in assay [6], 1.06 µM. In addition, the TGI is > 74.1 µM in [7], > 74.7 µM in assay [8], > 56.9 µM in assay [9] and > 70.1 µM in assay [10].
Take `CC(CO)(CO)N1C(=O)C2C3C=CC(C3)C2C1=O` (stereo unspecified): the TGI in assay [1], in assay [2], in assay [3], in assay [11], in assay [4] and in assay [5] was > 100 µM in each case. For the same compound, the TGI in assay [6], in [12], in assay [7], in assay [13], in assay [8] and in assay [9] was > 100 µM in each case. Moreover, the TGI in assay [10] and in assay [14] was > 100 µM each time.
As for `O=C(Nc1nc(C23CC4CC(CC(C4)C2)C3)cs1)c1cc2ccc(O)cc2oc1=O`, the TGI stood at 28.6 µM in assay [1]; 29.9 µM in [2]; 22.2 µM in assay [3]; 31.8 µM in assay [11]; 49 µM in assay [4]; 38.4 µM in assay [5]. The TGI in assay [6] was 45.6 µM; in [12], 48.5 µM; in [7], 44 µM; in assay [13] it was 35.4 µM; in assay [8], 39.9 µM; in assay [9], 39 µM. This compound also gave a TGI in assay [10] of 30.4 µM.
As for `OC1C#CCSCC#C/C=C\1` (stereo unspecified), the TGI in assay [1], in assay [15], in [3], in [11], in [4] and in assay [5] was > 100 µM throughout. Moreover, the TGI in [6] was 32.9 µM; in [12] it was 7.72 µM; in assay [7] it was > 100 µM; in assay [13], > 100 µM; in [8], > 100 µM; in [10], > 100 µM.
`COc1ccc(P2(=S)OC(C)(C)C(C)(C)O2)cc1`: the TGI in assay [2], in assay [3], in assay [11], in [4], in assay [5] and in assay [6] was > 100 µM throughout. The TGI in assay [12], in [7], in assay [13], in [9], in assay [10] and in assay [14] was > 100 µM throughout.
Consider `COC1(OC)C(N(C)C)=C(Cl)C(=O)/C1=C/C=O`, for which the TGI in [1], in assay [3], in [4], in assay [5], in assay [7] and in [8] was > 100 µM each time. Also, the TGI in assay [9] and in assay [10] was > 100 µM in each case.
`O=c1cc(-c2cccc3ccccc23)[nH]c2ncccc12`: the TGI was > 100 µM in [15]; 0.00404 µM in assay [11]; > 100 µM in [4]; > 100 µM in [5]; 0.0698 µM and 0.0767 µM in [6]; > 100 µM in assay [12]. The TGI in assay [7], in [13], in assay [8] and in assay [10] was > 100 µM throughout. In addition, the GI50 in assay [6] is 0.0158 µM; in [12] it was 0.0173 µM; in assay [7], 77.6 µM; in [8], 10.1 µM; in assay [10], 0.149 µM.
Take `S=c1sc2c(Cl)nc(Cl)nc2n1-c1ccccc1`: the TGI was > 100 µM in assay [1]; > 100 µM in assay [2]; > 100 µM in assay [3]; > 100 µM in [4]; 32.9 µM in assay [5]; 23.8 µM in assay [6]. For the same compound, the TGI in [7] is > 100 µM; in assay [8], 23.2 µM; in assay [9], > 100 µM; in assay [10], > 100 µM.

For the origin of these results see PubChem BioAssay (NCI).
